One data set deals with Bacillus subtilis. Kind of data set: Antimicrobial activity against Bacillus subtilis incubated for 24 hrs. It is filed as functional.
The next data set relates to Escherichia coli. The data set is described as follows: Antimicrobial activity against Escherichia coli incubated for 24 hrs. Type of data set: functional.
The next data set deals with Staphylococcus aureus. Kind of data set: Antimicrobial activity against Staphylococcus aureus incubated for 24 hrs. It is filed as functional.
The subject of a further data set is Candida albicans. The data set is described as follows: Antimicrobial activity against Candida albicans incubated for 24 hrs. Type of data set: functional.
The subject of a further data set is Salmonella enterica. Kind of data set: Antimicrobial activity against Salmonella enterica incubated for 24 hrs. Type of data set: functional.
Another data set has as its system MDA-MB-231. Kind of data set: Cytotoxicity in human MDA-MB-231 cells assessed as reduction in cell viability incubated for 72 hrs by SRB assay. It is filed as functional, cell-based. The settings on record: MDA-MB-231, 72 h. A general note: The SRB assay estimates cell density from bound dye.
A further data set has as its system A549. Kind of data set: Cytotoxicity in human A549 cells assessed as reduction in cell viability incubated for 72 hrs by SRB assay. It is filed as functional, cell-based. The settings on record: A549, 72 h.
The next data set relates to Kocuria rhizophila. Kind of data set: Antimicrobial activity against Kocuria rhizophila incubated for 24 hrs. It is filed as functional.
The test system of the next data set is Aspergillus fumigatus. The data set is described as follows: Antimicrobial activity against Aspergillus fumigatus incubated for 24 hrs. It is filed as functional.
A further data set has as its system SK-HEP1. The data set is described as follows: Cytotoxicity in human SKHEP1 cells assessed as reduction in cell viability incubated for 72 hrs by SRB assay. The settings on record: SK-HEP1, 72 h. Type of data set: functional, cell-based.
In another data set the test system is Proteus hauseri. The data set is described as follows: Antimicrobial activity against Proteus hauseri incubated for 24 hrs. Type of data set: functional.
The subject of the next data set is K562. The data set is described as follows: Cytotoxicity in human K562 cells assessed as reduction in cell viability incubated for 72 hrs by SRB assay. It is filed as functional, cell-based. The settings on record: K562, 72 h.
Another data set relates to HCT-116. Kind of data set: Cytotoxicity in human HCT116 cells assessed as reduction in cell viability incubated for 72 hrs by SRB assay. Type of data set: functional, cell-based. The settings on record: HCT-116, 72 h.
The subject of a further data set is SNU-638. Kind of data set: Cytotoxicity in human SNU638 cells assessed as reduction in cell viability incubated for 72 hrs by SRB assay. As to conditions: SNU-638, 72 h. Type of data set: functional, cell-based.
A short description of data set [1]: Toxicity in mouse Hepa1c1c7 cells at 2.5 to 20 uM. Type of data set: cell-based.

Molecules are shown by their SMILES. pIC50: −log10 of the molar value.

As usually defined, the MIC is the smallest concentration in the dilution series that meets the test's criterion for growth inhibition. High values mean a need for much substance, low ones inhibition by little substance. In general, pIC50 refers to −log10 of the IC50, conventionally taken in molar units.

In the case of `CCCCCCC/C=C\CCCCCCCCNC(=O)[C@H](O)CO[C@H]1O[C@H](CO)[C@@H](O)[C@H](O)[C@H]1NC(C)=O`, the MIC in the data set on Bacillus subtilis, against Escherichia coli, in the data set with Staphylococcus aureus, against Candida albicans, in the data set on Salmonella enterica and in the data set with Kocuria rhizophila was greater than 128 µM in each case. The minimum inhibitory concentration (MIC) in the data set with Aspergillus fumigatus and against Proteus hauseri was greater than 128 µM each time. For the same molecule, the pIC50 with MDA-MB-231, in the data set with A549, in the data set on SK-HEP1, with K562, with HCT-116 and in the data set on SNU-638 was less than 5.00 each time.
As to `CCCCCC/C=C\CCCCCCCCNC(=O)[C@H](O)CO[C@H]1O[C@H](CO)[C@@H](O)[C@H](O)[C@H]1NC(C)=O`, the minimum inhibitory concentration (MIC) against Bacillus subtilis, against Escherichia coli, in the data set on Staphylococcus aureus, with Candida albicans, with Salmonella enterica and against Kocuria rhizophila was greater than 128 µM throughout. Besides, the minimal inhibitory concentration (MIC) in the data set on Aspergillus fumigatus and in the data set on Proteus hauseri was greater than 128 µM each time. The negative-log IC50 (pIC50) with MDA-MB-231, in the data set on A549, with SK-HEP1, in the data set on K562, with HCT-116 and in the data set with SNU-638 was less than 5.00 throughout. Besides, the Activity entry in data set [1] is “Non-Toxic”.
For `CCCCCCCCCCCCCCCCCNC(=O)[C@H](O)CO[C@H]1O[C@H](CO)[C@@H](O)[C@H](O)[C@H]1NC(C)=O`, the minimum inhibitory concentration (MIC) against Bacillus subtilis, in the data set on Escherichia coli, in the data set with Staphylococcus aureus, in the data set with Candida albicans, in the data set on Salmonella enterica and in the data set on Kocuria rhizophila was greater than 128 µM each time. Also, the MIC against Aspergillus fumigatus and in the data set with Proteus hauseri was greater than 128 µM each time. The negative logarithm of the IC50 (pIC50) in the data set on MDA-MB-231, in the data set on A549, in the data set with SK-HEP1, with K562, with HCT-116 and in the data set on SNU-638 was less than 5.00 each time.
As to `CCCCCCCCCCCCCCCCNC(=O)[C@H](O)CO[C@H]1O[C@H](CO)[C@@H](O)[C@H](O)[C@H]1NC(C)=O`, the MIC in the data set with Bacillus subtilis, in the data set with Escherichia coli, with Staphylococcus aureus, in the data set with Candida albicans, in the data set on Salmonella enterica and against Kocuria rhizophila was greater than 128 µM in each case. The minimal inhibitory concentration (MIC) with Aspergillus fumigatus and against Proteus hauseri was greater than 128 µM each time. Moreover, the pIC50 with MDA-MB-231, in the data set with A549, with SK-HEP1, in the data set with K562, in the data set on HCT-116 and in the data set on SNU-638 was less than 5.00 in each case. For the same molecule, the Activity result in data set [1] is recorded as “Non-Toxic”.
